# PubChem BioAssay (NCI)
#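 Briefly, cells in 96-well plates were exposed to five compound concentrations for 48 h, and endpoints were estimated by linear interpolation. GI50: concentration for 50% inhibition of growth. TGI marks complete inhibition of growth.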
# Tests used:
# Assay in all cases: DTP human tumour cell line panel, 48 h
# [1] = test system: UACC-62 melanoma
# [2] = test system: CCRF-CEM leukemia
# [3] = test system: SN12C renal
# [4] = test system: OVCAR-4 ovarian
# [5] = test system: SNB-19 CNS
# [6] = test system: KM12 colon
# [7] = test system: UACC-257 melanoma
# [8] = test system: SF-268 CNS
# [9] = test system: IGROV1 ovarian
# [10] = test system: HL-60(TB) leukemia
Compound,TGI [1] [µM],TGI [2] [µM],TGI [3] [µM],TGI [4] [µM],TGI [5] [µM],TGI [6] [µM],TGI [7] [µM],TGI [8] [µM],TGI [9] [µM],TGI [10] [µM],GI50 [1] [µM],GI50 [2] [µM],GI50 [3] [µM],GI50 [4] [µM],GI50 [10] [µM],GI50 [5] [µM],GI50 [6] [µM],GI50 [7] [µM],GI50 [8] [µM],GI50 [9] [µM]
CS(=O)(=O)N(CCC#N)c1ccc(/C=N/NC(=O)CC(=O)Nc2cccc(Cl)c2)cc1,> 100,> 100,> 100,> 100,> 100,> 100,> 100,> 100,> 100,,,,,,,,,,,
COc1ccc(S(=O)(=O)N/N=C/CN2C(=O)c3ccccc3C2=O)cc1OC,> 100,> 100,,> 100,> 100,> 100,> 100,> 100,> 100,> 100,,,,,,,,,,
CC(C)COC(=O)N1N=NC2C3OC(CC3=O)C21 (stereo unspecified),> 100,> 100,> 100,> 100,> 100,> 100,> 100,> 100,> 31.6,> 100,,,,,,,,,,
CNC(=O)c1c(NC(=O)c2cccc(C(F)(F)F)c2)sc2c1CCC(=O)C2,2.14,1.49,> 20.7,1.44,> 100,1.96,7.3,> 100,2.26,1.98,0.414,0.113,0.361,0.389,0.318,0.356,0.423,1.9,0.486,0.339
CCOC(=O)c1cc2c(n1Cc1cc(OC)cc(OC)c1)-c1oncc1CCC2,> 100,> 100,> 100,> 100,> 100,> 20.5,,> 100,> 100,0.0972,0.0714,0.0542,0.252,1.77,0.0311,0.844,0.0472,,0.243,0.0732
C=CCC12CCC(=O)C=C1CCC1(C2)OCCO1 (stereo unspecified),> 100,> 100,> 100,> 100,> 100,> 100,> 100,> 100,> 100,> 100,,,,,,,,,,
CCOC(=O)C(=O)C1C(=O)Nc2ccccc21 (stereo unspecified),> 100,> 100,> 100,> 100,> 100,> 100,> 100,> 100,> 100,> 100,,,,,,,,,,
CN(C)/C=C/c1nnnn1-c1ccc(Cl)cc1,31.4,42.4,28.8,80.4,92.9,64.8,> 100,19.8,> 100,,8.22,4.65,4.69,28.2,,29,22,35.6,3.01,14
Cc1ccc2c[c]1[Hg][CH2]COS2(=O)=O,30.9,,30.9,23.4,> 100,,29.9,32.4,20.7,42.1,17.2,,17.2,11.3,21.8,> 100,,16.4,18,5.3
C=C1C(=O)O[C@H]2[C@H]1CC/C(CNS(=O)(=O)c1ccc3ccccc3c1)=C\CC[C@@]1(C)O[C@@H]21,4.01,2.31,7.13,18.7,26.7,23.8,4.54,10.1,8.2,3.96,1.64,0.399,2.15,4.2,1.63,12,10.8,1.9,2.72,2.87
Oc1ccc2occ3c2c1CCC3,> 100,> 100,> 100,> 100,> 100,,> 100,,> 100,> 100,,,,,,,,,,
CC/C=C\C/C=C\C[C@H](O)C/C=C1/C(=O)C=C[C@H]1C/C=C\CCC(=O)OC,7.16,7.8,> 8.25,> 8.25,> 8.25,> 8.25,,> 8.25,> 8.25,> 8.25,1.79,2.31,2.62,> 8.25,2.49,7.76,2.2,,3.04,> 8.25
CCN(CC)CC(=O)/C=C/c1ccc(C)cc1,32.5,,33.4,29.3,> 100,39,46,54.8,40.4,52,,,,,,,,,,
CC1=C(SCc2ccccc2)C(=O)c2ccccc2C1=O,31.8,,40.3,27.2,,35.7,31.4,31.3,25.3,> 100,,,,,,,,,,
C[N+](C)([O-])CCCNc1c2ccccc2nc2cccc([N+](=O)[O-])c12,0.491,1.96,1.43,3.16,3.2,4.36,2.25,8.14,,4.22,,,,,,,,,,
O=c1[nH]c(-c2ccccc2)nc2ccc(Cl)cc12,,,> 100,> 100,> 100,> 100,> 100,> 100,,,,,,,,,,,,
OCCN(CCO)c1cccc(N(CCO)CCO)c1,> 100,> 100,,> 100,> 100,> 100,> 100,> 100,,> 100,,,,,,,,,,
CO/C(=N\N=C\c1ccc(Cl)cc1Cl)c1ccncc1,,> 10,> 10,> 10,> 10,> 10,> 10,> 10,,> 10,,,,,,,,,,

Compound,TGI [1] [µM],TGI [2] [µM],TGI [3] [µM],TGI [4] [µM],TGI [5] [µM],TGI [6] [µM],TGI [7] [µM],TGI [8] [µM],TGI [9] [µM],TGI [10] [µM],GI50 [1] [µM],GI50 [2] [µM],GI50 [3] [µM],GI50 [4] [µM],GI50 [10] [µM],GI50 [5] [µM],GI50 [6] [µM],GI50 [7] [µM],GI50 [8] [µM],GI50 [9] [µM]
COc1cc(N=Nc2ccccc2)cc(/C=N\[N-]C(N)=S)c1[O-].COc1cc(N=Nc2ccccc2)cc(/C=N\[N-]C(N)=S)c1[O-].[Fe+4],> 100,92.6,,> 100,> 100,> 100,> 100,> 100,> 100,> 100,0.378,15.8,,17.8,12.6,44.4,23,> 100,12.2,29.1
CCN(CC)c1ccc(N=C2C=C(C(=O)Nc3ccc(S(C)(=O)=O)cc3)C(=O)c3ccccc32)c(C)c1,> 100,> 100,> 100,> 100,> 100,> 100,> 100,> 100,,> 100,0.734,> 100,> 100,8.91,14,4.39,1.03,> 100,2.4,
CC(=N\O)/C(C)=N/O.CC(=N\O)/C(C)=N/O.CC(=N\O)/C(C)=N/O.CC(=N\O)/C(C)=N/O.[Cu].[Cu],30.8,,35.2,35.9,34.5,36.4,34.5,34.6,56.2,44.4,17.1,,18.8,20.4,26.4,19.7,20.6,20.2,19.8,23.8
C=C1C(=O)O[C@H]2[C@H]1CC/C(CNC(=O)/C=C/c1cccc(OC)c1)=C\CC[C@@]1(C)O[C@@H]21,2.92,5.29,4.34,4.79,13.5,20.5,2.98,6.69,5.3,,1.43,0.419,1.53,1.69,,3.22,5.8,1.45,2.29,1.96
c1cc(C2CCCCC2)ccc1OCCCCCCN1CCNCC1,3.81,3.39,3.54,4.52,,3.55,3.68,,3.89,3.32,1.86,1.51,1.79,1.95,1.54,,1.98,1.89,,2.04
Cc1cc2c(cc1C)[n+](=O)c(C(=O)/C=C/c1ccc(Cl)cc1)c(C)n2[O-],44.3,> 100,> 100,81.9,> 100,> 100,89.9,,63.7,> 100,,,,,,,,,,
CN(C)c1ccc(/C=C/C(=O)C(C)(C)C)cc1Br,34.2,85.1,76,52.2,> 100,56.1,61.9,70,> 100,,,,,,,,,,,
NC(N)=N/N=C/c1c(-c2cccs2)nc2sccn12,28.3,27.1,26.9,20,28.6,20.7,37.7,29.1,,39,14.8,1.61,13.4,5.89,12.8,14.8,8.24,20.3,15.2,
C[C@]12CC/C(=N\N)C[C@@H]1CC[C@@H]1[C@@H]2CC[C@]2(C)/C(=N/N)CC[C@@H]12,> 100,> 100,> 100,> 100,,> 100,> 100,> 100,> 100,> 100,> 100,> 100,> 100,> 100,> 100,,> 100,> 100,> 100,> 100
N=S(=O)(c1ccccc1)c1ccccc1[N+](=O)[O-] (stereo unspecified),> 100,> 100,> 100,> 100,> 100,> 100,> 100,,> 100,> 100,,,,,,,,,,
Cc1ccc(C(=O)O/N=C2/CCCCC2CN(C)C)cc1 (stereo unspecified),> 100,> 100,> 100,> 100,,> 100,> 100,,> 100,> 100,,,,,,,,,,
O=C1c2ccccc2-c2nccc3cc(Cl)nc1c23,13,,> 100,3,74.8,,,4.28,1.91,> 100,2.77,1.06,2.25,1.64,1.97,20.7,,,1.74,0.586
Cn1c(=O)c(Oc2cccc(F)c2)cc2cnc(NC3CCOCC3)nc21,> 25,,> 25,> 25,> 25,> 25,> 25,> 25,> 25,> 25,> 25,,> 25,> 22.6,> 25,> 25,> 25,> 25,> 25,24.8
ON(CCc1ccncc1)Cc1ccccc1,> 100,,> 100,> 100,> 100,> 100,,> 100,> 100,,,,,,,,,,,
O=[N+]([O-])c1cc(O)c(O)cc1-c1cn2ccsc2n1,> 100,,> 100,> 100,> 100,> 100,> 100,> 100,> 100,,54.2,,85.6,69.7,,91.1,40.4,> 100,66.1,32.4
O=S(=O)([O-])[O-].[Cl-].[NH2-].[NH2-].[NH2-].[NH2-].[Ru+3].c1ccc(-c2cccnc2)cc1,> 100,> 100,> 100,> 100,,> 100,> 100,> 100,> 100,> 100,> 100,> 100,> 100,> 100,> 100,,> 100,> 100,> 100,> 100
CCNC(=O)/C=C/CCC#Cc1ccc(-c2ccc(-c3cccs3)s2)s1,> 100,> 100,,> 100,> 100,> 100,> 100,> 100,> 100,> 100,,,,,,,,,,
